Reference: a compilation of properties of binary mixtures (doi:10.1021/jp403813g)

Test: xn = mol fraction of the nth substance listed
Settings: 100 kPa

CS(C)=O + CCCC[n+]1ccn(C)c1.[Cl-]
Settings	speed of sound [m/s]
313.15 K, x2 = 0	1442

CS(C)=O + CC[n+]1ccn(C)c1.[Cl-]
x2 = 0
Settings	speed of sound [m/s]
298.15 K	1496
303.15 K	1472

CCCC[n+]1ccn(C)c1.[Cl-] + CS(C)=O
313.15 K
Settings	speed of sound [m/s]
x1 = 0.0341	1491
x1 = 0.1122	1569
x1 = 0.2433	1650
x1 = 0.3032	1674
x1 = 0.3705	1696
x1 = 0.4746	1732
x1 = 0.5997	1773
x1 = 0.7115	1794
x1 = 0.843	1816
x1 = 0.9445	1829

CC[n+]1ccn(C)c1.[Cl-] + CS(C)=O
speed of sound [m/s]
Settings	298.15 K	303.15 K	308.15 K	313.15 K
x1 = 0.0194	–	–	1473	1455
x1 = 0.0453	1517	–	1485	–
x1 = 0.0677	1532	1509	1498	1480
x1 = 0.0984	1551	1527	1516	–
x1 = 0.1236	1563	1539	1527	1508
x1 = 0.1619	1582	1560	1547	1528
x1 = 0.2143	–	1583	1571	1550
x1 = 0.2927	–	–	–	1586
x1 = 0.3737	1675	1652	1638	1618
x1 = 0.4429	1701	1678	1665	1645
x1 = 0.5264	1730	1709	1694	1675
x1 = 0.6072	–	1736	1723	1705
x1 = 0.7477	–	1787	1776	1758
x1 = 0.7986	1828	1812	1801	1783
x1 = 0.8501	–	1833	1822	1804
x1 = 0.8944	1869	1855	1843	1826
x1 = 0.9396	1893	1880	1869	1854
x1 = 0.9694	1910	1894	1883	1868
x1 = 1	1935	1923	1918	1894
x2 = 0.0071	1929	1914	1903	1887
